This is an account of results in ChEMBL document CHEMBL5257132, “Discovery of a Novel Series of Potent SHP2 Allosteric Inhibitors” (ACS Med Chem Lett, 2023).

Data set [1] is described as follows: Inhibition of ERK phosphorylation in human KYSE520 cells incubated for 2 hrs by TR-FRET assay. In kind it is cell-based. The conditions noted are these: KYSE-520, 2 h. On the technique in general: TR-FRET usually uses a lanthanide donor and a delayed reading to cut background.
For data set [2], the target named is Voltage-gated inwardly rectifying potassium channel KCNH2 (Homo sapiens, UniProt Q12809). The experiment in a line: Inhibition of human ERG by fluorescence polarization assay. In kind it is toxicity. In general terms: Polarisation of emitted light reports the rotation of a fluorescent probe.
The subject of another data set is KYSE-520 cell line. The experiment in a line: Antiproliferative activity against human KYSE520 cells assessed as inhibition of cell proliferation incubated for 96 hrs by CellTiter-Glo reagent based assay. In kind it is functional. The conditions noted are these: KYSE-520, 96 h. For orientation: In ATP-based viability assays light output follows the ATP content of the culture.

The target of data set [3] is T1, Tyrosine-protein phosphatase non-receptor type 11 (Homo sapiens, UniProt Q06124).
T1 sequence (Q06124 whole entry): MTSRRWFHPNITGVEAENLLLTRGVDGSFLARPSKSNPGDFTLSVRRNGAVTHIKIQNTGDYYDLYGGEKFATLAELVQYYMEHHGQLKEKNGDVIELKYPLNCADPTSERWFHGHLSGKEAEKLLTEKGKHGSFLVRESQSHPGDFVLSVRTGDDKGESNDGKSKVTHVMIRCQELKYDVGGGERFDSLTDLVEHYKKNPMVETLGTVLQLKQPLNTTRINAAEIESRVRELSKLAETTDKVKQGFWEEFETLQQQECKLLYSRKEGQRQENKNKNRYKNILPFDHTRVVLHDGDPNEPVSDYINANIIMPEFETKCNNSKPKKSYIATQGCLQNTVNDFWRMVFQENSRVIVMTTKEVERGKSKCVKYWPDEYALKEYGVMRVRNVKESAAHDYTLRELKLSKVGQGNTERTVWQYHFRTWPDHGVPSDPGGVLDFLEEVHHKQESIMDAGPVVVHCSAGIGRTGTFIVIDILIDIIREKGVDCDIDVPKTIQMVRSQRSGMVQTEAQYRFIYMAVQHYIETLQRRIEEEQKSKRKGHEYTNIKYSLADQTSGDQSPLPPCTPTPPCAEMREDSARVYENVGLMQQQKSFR
The data set can be described thus: Allosteric inhibition of recombinant human SHP2 using IRS1 peptide and DiFMUP as substrate incubated for 30 mins followed by DiFMUP addition and measured after 30 mins by fluorescence based microplate reader analysis.

Data set [4] is described as follows: Apparent permeability of compound at pH 7.4 at 5 uM incubated for 4 hrs by PAMPA based LC-MS/MS analysis. In kind it is ADME.

Sequence of Voltage-gated inwardly rectifying potassium channel KCNH2 (Q12809 whole entry): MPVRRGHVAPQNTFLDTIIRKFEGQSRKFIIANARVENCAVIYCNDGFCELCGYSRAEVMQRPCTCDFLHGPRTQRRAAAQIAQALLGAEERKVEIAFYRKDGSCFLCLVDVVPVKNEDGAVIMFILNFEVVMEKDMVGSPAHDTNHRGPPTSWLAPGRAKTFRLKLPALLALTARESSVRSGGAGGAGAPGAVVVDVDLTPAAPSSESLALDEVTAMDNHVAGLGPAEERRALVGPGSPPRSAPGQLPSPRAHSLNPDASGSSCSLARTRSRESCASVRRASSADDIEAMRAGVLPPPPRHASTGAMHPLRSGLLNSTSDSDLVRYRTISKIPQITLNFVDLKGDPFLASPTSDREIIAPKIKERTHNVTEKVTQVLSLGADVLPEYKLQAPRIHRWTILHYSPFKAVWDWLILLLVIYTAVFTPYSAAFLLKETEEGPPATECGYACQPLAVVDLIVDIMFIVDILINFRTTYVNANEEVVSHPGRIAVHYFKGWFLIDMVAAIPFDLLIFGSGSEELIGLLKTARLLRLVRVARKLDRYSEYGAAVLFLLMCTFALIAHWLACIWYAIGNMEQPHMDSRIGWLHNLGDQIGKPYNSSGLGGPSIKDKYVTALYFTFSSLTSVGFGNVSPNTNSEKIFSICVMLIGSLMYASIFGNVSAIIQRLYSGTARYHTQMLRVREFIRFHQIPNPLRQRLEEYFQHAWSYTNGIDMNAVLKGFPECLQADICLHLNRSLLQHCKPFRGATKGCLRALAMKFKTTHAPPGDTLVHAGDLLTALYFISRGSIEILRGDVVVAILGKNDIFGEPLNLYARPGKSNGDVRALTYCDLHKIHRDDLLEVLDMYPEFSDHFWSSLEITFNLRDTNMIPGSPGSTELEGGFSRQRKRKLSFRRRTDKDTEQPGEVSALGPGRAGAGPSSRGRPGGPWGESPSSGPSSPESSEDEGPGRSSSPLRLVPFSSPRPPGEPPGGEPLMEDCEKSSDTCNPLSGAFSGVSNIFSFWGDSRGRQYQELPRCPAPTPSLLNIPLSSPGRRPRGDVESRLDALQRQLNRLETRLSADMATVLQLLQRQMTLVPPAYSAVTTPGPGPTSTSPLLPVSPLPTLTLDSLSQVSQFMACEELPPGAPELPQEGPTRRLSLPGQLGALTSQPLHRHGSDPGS

The IC50 is the concentration at which inhibition is half-maximal. As to `Cc1nc(N2CCC3(CC2)CO[C@@H](C)[C@H]3N)c(CO)nc1-c1cccc(Cl)c1Cl`, the figures for the 50% inhibitory concentration (IC50) (in data set [1]; in data set [2]; in the data set on KYSE-520 cell line) were 22 nM, 3350 nM and 4550 nM, respectively.

Consider `N[C@]1(c2ccccc2)[C@@H]2CCN(c3cnc4c(-c5cccc(Cl)c5Cl)n[nH]c4n3)C[C@@H]21`, for which the IC50 in data set [3] was determined as 1460 nM.

For `NC[C@]1(c2ccccc2)[C@@H]2CN(c3nc4nc(Sc5cccnc5C(F)(F)F)cnc4[nH]3)C[C@@H]21`, in data set [3], the IC50 is greater than 8000 nM.

The term Papp denotes the rate of passage across a membrane or cell layer, normalised by area and donor concentration. As to `Cc1csc([C@@]2(CN)[C@@H]3CCN(c4cnc5c(-c6ccc7nc(C)sc7c6Cl)n[nH]c5n4)C[C@@H]32)n1`, the IC50 in data set [3] stood at 2 nM; in data set [1], 4 nM; in data set [2] it was 24 nM. Besides, in data set [4], the apparent permeability (Papp) at 4 h, 5 µM came out at 4.36 ×10⁻⁶ cm/s.

As to `Cn1cc2c(Cl)c(-c3n[nH]c4nc(N5C[C@@H]6[C@H](C5)[C@@]6(CN)c5cnsn5)cnc34)ccc2n1`, the IC50 was 4 nM in data set [3], 30 nM in data set [1] and greater than 30000 nM in data set [2].

For `Cc1csc([C@@]2(CN)[C@@H]3CCN(c4nc5nc(Sc6cccnc6C(F)(F)F)cnc5[nH]4)C[C@@H]32)n1`, the IC50 is 9 nM in data set [3] and 210 nM in data set [1].

Take `NC[C@]1(c2ccccn2)[C@@H]2CCN(c3cnc4c(-c5cccc(Cl)c5Cl)n[nH]c4n3)C[C@@H]21`: the IC50 in data set [3] turned out to be 5 nM; in data set [1], 42 nM; in data set [2], 42 nM.

As for `Cc1csc([C@@]2(CN)[C@@H]3CCN(c4cnc(Sc5cccnc5C(F)(F)F)c(N)n4)C[C@@H]32)n1`, the IC50 in data set [3] amounted to 65 nM; in data set [1] it was 9 nM.

As for `Cc1nc([C@@]2(CN)[C@@H]3CN(c4cnc5c(-c6ccc7nn(C)cc7c6Cl)n[nH]c5n4)C[C@@H]32)cs1`, the half-inhibitory concentration (IC50) was 6 nM in data set [3], 89 nM in data set [1] and greater than 30000 nM in data set [2].

With `NC[C@]1(c2ccccn2)[C@@H]2CCN(c3nc4nc(Sc5cccnc5C(F)(F)F)cnc4[nH]3)C[C@@H]21`, the 50% inhibitory concentration (IC50) is 17 nM in data set [3] and 477 nM in data set [1].

As to `Cc1cccc([C@@]2(CN)[C@@H]3CN(c4cnc5c(-c6ccc7nn(C)cc7c6Cl)n[nH]c5n4)C[C@@H]32)n1`, the IC50 in data set [3] came to 4 nM; in data set [1], 90 nM; in data set [2], 5870 nM.

Regarding `Cn1cc2c(Cl)c(-c3n[nH]c4nc(N5C[C@@H]6[C@H](C5)[C@@]6(CN)c5nc(Cl)cs5)cnc34)ccc2n1`, the IC50 in data set [3] amounted to 5 nM; in data set [1], 9 nM; in data set [2] it was 12300 nM; in the data set on KYSE-520 cell line, 183 nM.

`Cn1cc2c(Cl)c(-c3n[nH]c4nc(N5C[C@@H]6[C@H](C5)[C@@]6(CN)c5ccccn5)cnc34)ccc2n1`: the results for the IC50 in data set [3], in data set [1] and in data set [2] were 5 nM, 40 nM and 8960 nM, respectively.

With `Cc1csc([C@@]2(CN)[C@@H]3CN(c4cnc5c(-c6ccc7nc(C)sc7c6Cl)n[nH]c5n4)C[C@@H]32)n1`, the figures for the IC50 in data set [3], in data set [1] and in data set [2] were 5 nM, 22 nM and 1660 nM, respectively.

Take `NC[C@]1(c2ccsc2)[C@@H]2CCN(c3cnc4c(-c5cccc(Cl)c5Cl)n[nH]c4n3)C[C@@H]21`: the IC50 in data set [3] was 8 nM; in data set [1], 100 nM; in data set [2], 109 nM.

For `NC[C@]1(c2ccccn2)[C@@H]2CCN(c3cnc(Sc4cccnc4C(F)(F)F)c(N)n3)C[C@@H]21`, the IC50 in data set [3] is 68 nM; in data set [1] it was 20 nM.

For the compound `Cc1nnc([C@@]2(CN)[C@@H]3CN(c4cnc5c(-c6ccc7nn(C)cc7c6Cl)n[nH]c5n4)C[C@@H]32)s1`, the IC50 in data set [3] was 10 nM; in data set [1], 162 nM; in data set [2], greater than 30000 nM.

Regarding `NC[C@]1(c2ccsc2)[C@@H]2CCN(c3cnc4c(-c5cccnc5C(F)(F)F)n[nH]c4n3)C[C@@H]21`, the results for the IC50 in data set [3], in data set [1] and in data set [2] were 34 nM, greater than 666 nM and 5560 nM, respectively.

As for `NC[C@]1(c2ccsc2)[C@@H]2CCN(c3nc4nc(Sc5cccnc5C(F)(F)F)cnc4[nH]3)C[C@@H]21`, the IC50 is 54 nM in data set [3] and greater than 1330 nM in data set [1].

As to `Cc1csc([C@@]2(CN)[C@@H]3CCN(c4cnc5c(-c6ccc7nn(C)cc7c6Cl)n[nH]c5n4)C[C@@H]32)n1`, the IC50 is 6 nM in data set [3], 14 nM in data set [1] and 107 nM in data set [2].

Consider `Cn1ccc([C@@]2(CN)[C@@H]3CN(c4cnc5c(-c6ccc7nn(C)cc7c6Cl)n[nH]c5n4)C[C@@H]32)n1`, for which the IC50 in data set [3] is 7 nM; in data set [1], 153 nM; in data set [2], greater than 30000 nM.

With `N[C@]1(c2ccccc2)[C@@H]2CN(c3nc4nc(Sc5cccnc5C(F)(F)F)cnc4[nH]3)C[C@@H]21`, in data set [3], the IC50 is greater than 8000 nM.

Take `Cc1csc([C@]2(CN)[C@@H]3CCN(c4cnc5c(-c6cccc(Cl)c6Cl)n[nH]c5n4)C[C@@H]32)n1`: the IC50 came out at 3 nM in data set [3], 28 nM in data set [1] and 58 nM in data set [2]. Also, the Papp at 4 h, 5 µM in data set [4] was found to be 1.75 ×10⁻⁶ cm/s.

Consider `Cc1csc([C@@]2(CN)[C@@H]3CCN(c4cnc5c(-c6ccn7nccc7c6Cl)n[nH]c5n4)C[C@@H]32)n1`, for which the IC50 in data set [3] is 3 nM; in data set [1], 22 nM; in data set [2], 12 nM.

With `NC[C@]1(c2ccccc2)[C@@H]2CCN(c3nc4nc(Sc5cccnc5C(F)(F)F)cnc4[nH]3)C[C@@H]21`, the figures for the concentration for half-maximal inhibition (IC50) in data set [3] and in data set [1] were 94 nM and greater than 1330 nM, respectively.

Consider `Cn1cc2c(Cl)c(-c3n[nH]c4nc(N5C[C@@H]6[C@H](C5)[C@@]6(CN)c5ccccc5)cnc34)ccc2n1`, for which the IC50 in data set [3] stood at 9 nM; in data set [1] it was 70 nM; in data set [2], 5350 nM.

On to `Cn1cc2c(Cl)c(-c3n[nH]c4nc(N5C[C@@H]6[C@H](C5)[C@@]6(CN)c5nc(C(F)(F)F)cs5)cnc34)ccc2n1`, for which the IC50 was 12 nM in data set [3], 21 nM in data set [1], greater than 30000 nM in data set [2] and 231 nM with KYSE-520 cell line.

On to `Cc1csc([C@@]2(CN)[C@@H]3CCN(c4cnc5c(-c6cccnc6C(F)(F)F)n[nH]c5n4)C[C@@H]32)n1`, for which the IC50 in data set [3] was 55 nM; in data set [1], greater than 666 nM; in data set [2], 5060 nM.

`Cc1ccn([C@@]2(CN)[C@@H]3CN(c4cnc5c(-c6ccc7nn(C)cc7c6Cl)n[nH]c5n4)C[C@@H]32)n1`: the IC50 in data set [3] was 49 nM; in data set [1], 444 nM; in data set [2], greater than 30000 nM.

Regarding `Cc1csc([C@]2(CN)[C@@H]3CN(c4cnc5c(-c6cccc(Cl)c6Cl)n[nH]c5n4)CC[C@@H]32)n1`, the half-inhibitory concentration (IC50) in data set [3] is 370 nM; in data set [2], 769 nM.

On to `N[C@]1(c2ccccc2)[C@@H]2CCN(c3nc4nc(Sc5cccnc5C(F)(F)F)cnc4[nH]3)C[C@@H]21`, for which the half-inhibitory concentration (IC50) in data set [3] amounted to 1410 nM.

As for `Cn1cc2c(Cl)c(-c3n[nH]c4nc(N5C[C@@H]6[C@H](C5)[C@@]6(CN)c5nccs5)cnc34)ccc2n1`, the IC50 in data set [3] was determined as 4 nM; in data set [1], 60 nM; in data set [2] it was 13500 nM.

In the case of `NC[C@]1(c2ccccc2)[C@@H]2CCN(c3cnc4c(-c5cccc(Cl)c5Cl)n[nH]c4n3)C[C@@H]21`, the IC50 was found to be 9 nM in data set [3], 260 nM in data set [1] and 389 nM in data set [2].

Turning to `NC[C@]1(c2ccccc2)[C@@H]2CCN(c3cnc(Sc4cccnc4C(F)(F)F)c(N)n3)C[C@@H]21`, the 50% inhibitory concentration (IC50) in data set [3] worked out at 360 nM.

Take `Cc1csc([C@@]2(CN)[C@@H]3CN(c4cnc5c(-c6ccn7nccc7c6Cl)n[nH]c5n4)C[C@@H]32)n1`: the half-inhibitory concentration (IC50) was determined as 4 nM in data set [3], 65 nM in data set [1] and 235 nM in data set [2].

For the compound `Cc1csc([C@@]2(CN)[C@@H]3CCN(c4cnc5c(-c6cccc(Cl)c6Cl)n[nH]c5n4)C[C@@H]32)n1` (racemic), the IC50 in data set [3] stood at 6 nM; in data set [1], 71 nM; in data set [2] it was 250 nM.
